According to patent US4036840A, “2-Substituted-s-triazolo[1,5a]pyrimidines” (ICN Pharmaceuticals, priority 1975, dated 1977):

Experiments:
[1] = tested on: 3',5'-Cyclic AMP phosphodiesterase (PDE) from lung; experiment: 3',5'-Cyclic AMP phosphodiesterase (PDE) inhibition, rabbit lung enzyme (Fraction II, low Km); type: biochemical; details: relative to theophylline, cAMP about 1.7 × 10^-7 M, 30° C., 10 minutes, pH 7.5
[2] = tested on: 3',5'-Cyclic AMP phosphodiesterase (PDE) from kidney; experiment: 3',5'-Cyclic AMP phosphodiesterase (PDE) inhibition, rabbit kidney enzyme (Fraction II, low Km); type: biochemical; details: relative to theophylline, cAMP about 1.7 × 10^-7 M, 30° C., 10 minutes, pH 7.5
anesthetized dogs = experiment: Hemodynamic activity in anesthetized dogs; type: in vivo, dog; details: 10 mg/Kg/hr; vehicle DMSO (Saline for 44-46)
Procedure: Compounds 3, 41, 43-48, 51 were tested in anesthetized dogs for hemodynamic activities including cardiac output, stroke volume and heart rate. For management of low perfusion states such as cardiovascular shock and congestive heart failure, it is desirable to have increased cardiac output and increased stroke volume accompanied by a decrease or no change in heart rate.
% CHANGE OF CARDIAC OUTPUT, STROKE VOLUME AND HEART RATE AT 10 mg/Kg/hr

[3] = Solubility noted in the PDE test (Insoluble); type: physicochemical; details: compound not tested for PDE inhibition
Procedure: With respect to the compounds which are indicated in Tables I, II and III as being insoluble, although such compounds have not undergone the inhibitory test of Example XVI, due to the similarity in structure to compounds which were tested, it is expected that in vivo testing of the compounds in forms other than solution will readily indicate phosphodiesterase enzyme inhibitory capability.

[4] = tested on: isolated guinea pig heart preparation; experiment: Coronary dilation in isolated guinea pig heart preparation; details: 10 μg/ml, preliminary
[5] = tested on: isolated guinea pig uteri; experiment: Smooth muscle relaxation of isolated guinea pig uteri; details: 2-10 μg/ml
rats = experiment: Hypotensive activity (Weeks and Jones), mean blood pressure in rats; type: in vivo, rat; details: oral
Procedure: Exper. Therap., 104, 646 (1960). At an oral dose of 50 mg/kg in rats, there was a % decrease in mean blood pressure at 1, 3, 6 hours of 11%, 13%, and 24%, respectively.

Row | SMILES | PDE Lung; α (I50 theophylline / I50 compound) [1] | PDE Kidney; α (I50 theophylline / I50 compound) [2] | other results
1 | Cc1cc(C)n2nc(SCc3ccccc3)nc2n1 [Compound 3, 2-benzylthio-5,7-dimethyl-s-triazolo[1,5a]pyrimidine] | 2.50 | 2.10 | % change of cardiac output (anesthetized dogs): -1%; % change of heart rate (anesthetized dogs): -7%; % change of stroke volume (anesthetized dogs): -7%
2 | Cc1cc(C)n2nc(SCc3ccc(Cl)cc3)nc2n1 [Compound 4, 2-(p-chlorobenzylthio)-5,7-dimethyl-s-triazolo[1,5a]pyrimidine] | 4.00 | 4.0 | 
3 | CCCSc1nc2nc(C)cc(C)n2n1 [Compound 7] | 0.90 | 1.00 | 
4 | Cc1cc(C)n2nc(SC(C)C)nc2n1 [Compound 8] | 0.10 | 1.30 | 
5 | CSc1nc2nc(C)cc(C)n2n1 [Compound 9] | 0.50 | 0.25 | 
6 | Cc1cc(C)n2nc(SCC(C)C)nc2n1 [Compound 10] | 0.10 | 0.50 | 
7 | CCOC(=O)C(Sc1nc2nc(C)cc(C)n2n1)C(=O)OCC [Compound 11] | 0.50 | 0.00 | 
8 | Cc1cc(C)n2nc(SCc3ccc(C(=O)O)cc3)nc2n1 [Compound 12] | 1.20 | 0.70 | 
9 | Cc1ccc(CSc2nc3nc(C)cc(C)n3n2)cc1 [Compound 13] | 6.20 | 1.00 | 
10 | Cc1cccc(CSc2nc3nc(C)cc(C)n3n2)c1 [Compound 14] | 2.00 | 0.70 | 
11 | Cc1cc(C)n2nc(SCc3ccccc3C)nc2n1 [Compound 15] | 3.50 | 4.00 | 
12 | Cc1cc(C)n2nc(SCc3cc4c(cc3Cl)OCO4)nc2n1 [Compound 16] |  |  | Solubility [3]: Insoluble
13 | Cc1cc(C)n2nc(SCc3c(C)ccc4ccccc34)nc2n1 [Compound 17] |  |  | Solubility [3]: Insoluble
14 | Cc1cc(C)n2nc(SCc3ccncc3)nc2n1 [Compound 18] | 0.80 | 0.70 | 
15 | Cc1cc(C)n2nc(SCc3cccnc3)nc2n1 [Compound 19] | 1.17 | 0.00 | 
16 | Cc1cc(C)n2nc(SCc3ccc4ccccc4n3)nc2n1 [Compound 20] | 2.00 | 0.70 | 
17 | CCOC(=O)c1ccc(CSc2nc3nc(C)cc(C)n3n2)o1 [Compound 21] | 3.2 | 1.25 | 
18 | Cc1cc(C)n2nc(SCC3CCCO3)nc2n1 (stereo not drawn) [Compound 22] | 0.60 | 0.00 | 
19 | Cc1cc(C)n2nc(SCCc3ccccc3)nc2n1 [Compound 23] | 2.50 | 2.50 | 
20 | Cc1cc(Cl)n2nc(SCc3ccccc3)nc2n1 [Compound 25, 2-benzylthio-7-chloro-5-methyl-s-triazolo[1,5a]pyrimidine] | 4.00 | 1.40 | 
21 | CCCNc1cc(C)nc2nc(SCc3ccccc3)nn12 [Compound 26] | 2.00 | 0.90 | 

Row | SMILES | PDE Lung; α (I50 theophylline / I50 compound) [1] | PDE Kidney; α (I50 theophylline / I50 compound) [2] | other results
22 | CCN(CC)c1cc(C)nc2nc(SCc3ccccc3)nn12 [Compound 27, 2-benzylthio-7-diethylamino-5-methyl-s-triazole[1,5a]pyrimidine] | 4.20 | 2.30 | coronary dilation [4]: coronary dialation; smooth muscle relaxation [5]: smooth muscle relaxants
23 | Cc1cc(N(C)C)n2nc(SCc3ccccc3)nc2n1 [Compound 28] | 8.00 | 3.40 | 
24 | Cc1cc(N2CCCCC2)n2nc(SCc3ccccc3)nc2n1 [Compound 30] | 10.0 | 3.20 | 
25 | Cc1cc(N2CCOCC2)n2nc(SCc3ccccc3)nc2n1 [Compound 31] | 7.70 | 4.80 | 
26 | Cc1cc(NN)n2nc(SCc3ccccc3)nc2n1 [Compound 32, 2-benzylthio-7-hydrazino-5-methyl-s-triazolo[1,5a]pyrimidine] |  |  | Solubility [3]: Insoluble; hypotensive activity (rats; 25 mg/kg): significant hypotensive activity; hypotensive activity (rats; 50 mg/kg): significant hypotensive activity; % decrease in mean blood pressure at 1 hour (rats; 50 mg/kg, 1 hour): 11%; % decrease in mean blood pressure at 3 hours (rats; 50 mg/kg, 3 hours): 13%; % decrease in mean blood pressure at 6 hours (rats; 50 mg/kg, 6 hours): 24%
27 | Cc1cc(NN(C)C)n2nc(SCc3ccccc3)nc2n1 [Compound 33] | 5.30 | 8.00 | 
28 | CCOC(=O)c1cnc2nc(SCc3ccccc3)nn2c1O [Compound 34, 2-benzylthio-6-carbethoxy-7-hydroxy-s-triazolo [1,5a]pyrimidine] | 0.00 | 0.00 | 
29 | CCOC(=O)c1cnc2nc(SCc3ccccc3)nn2c1Cl [Compound 35, 2-benzylthio-6-carbethoxy-7-chloro-s-triazolo[1,5a]pyrimidine] |  |  | Solubility [3]: Insoluble
30 | CCOC(=O)c1cnc2nc(SCc3ccccc3)nn2c1N1CCOCC1 [Compound 36] | 6.90 | 2.90 | 
31 | CCOC(=O)c1cnc2nc(SCc3ccccc3)nn2c1NCc1ccccc1 [Compound 37] |  |  | Solubility [3]: Insoluble
32 | CCOC(=O)c1cnc2nc(SCc3ccccc3)nn2c1NCCO [Compound 38] |  |  | Solubility [3]: Insoluble
33 | CCCNc1c(C(=O)OCC)cnc2nc(SCc3ccccc3)nn12 [Compound 39, 2-benzylthio-6-carbethoxy-7-n-propylamino-s-triazolo[1,5a]pyrimidine] | 21.0 | 7.0 | coronary dilation [4]: coronary dialation
34 | CCOC(=O)c1cnc2nc(SCc3ccccc3)nn2c1S [Compound 40, 2-BENZYLTHIO-6-CARBETHOXY-7-MERCAPTO-s-TRIAZOLO[1,5a] PYRIMIDINE] |  |  | Solubility [3]: Insoluble
35 | CCCc1cc(CCC)n2nc(SCc3ccccc3)nc2n1 [Compound 41, 2-benzylthio-5,7-di-n-propyl-1,2,4-triazolo[1,5a]pyrimidine] |  |  | % change of cardiac output (anesthetized dogs): +23%; % change of heart rate (anesthetized dogs): -4.2%; % change of stroke volume (anesthetized dogs): +27%
36 | CCCc1cc(CCC)n2nc(SCc3ccc(C)cc3)nc2n1 [Compound 43, 5,7-di-n-propyl-2-(4-methylbenzyl)thio-1,2,4-triazolo[1,5a]pyrimidine] |  |  | % change of cardiac output (anesthetized dogs): +34.3%; % change of heart rate (anesthetized dogs): -2.8%; % change of stroke volume (anesthetized dogs): +3.8%
37 | CCCc1cc(CCC)n2nc(SCc3ccc(C(=O)O)cc3)nc2n1 [Compound 44, 5,7-di-n-propyl-2-(4-carboxybenzyl)thio-1,2,4-triazolo[1,5a]pyrimidine] |  |  | % change of cardiac output (anesthetized dogs): +18%; % change of heart rate (anesthetized dogs): +0.2%; % change of stroke volume (anesthetized dogs): +18%
38 | CCCc1cc(CCC)n2nc(SCc3ccncc3)nc2n1 [Compound 45, 5,7-di-n-propyl-2-(4-picolyl)thio-1,2,4-triazolo[1,5a]pyrimidine] |  |  | % change of cardiac output (anesthetized dogs): +27%; % change of heart rate (anesthetized dogs): -8.1%; % change of stroke volume (anesthetized dogs): +39%
39 | CCCc1cc(CCC)n2nc(SCc3cccnc3)nc2n1 [Compound 46, 5,7-di-n-propyl-2-(3-picolyl)thio-1,2,4-triazolo[1,5a]pyrimidine] |  |  | % change of cardiac output (anesthetized dogs): +20%; % change of heart rate (anesthetized dogs): -10.9%; % change of stroke volume (anesthetized dogs): +35%
40 | CCCc1cc(CCC)n2nc(S(=O)(=O)Cc3ccccc3)nc2n1 [Compound 47, 2-benzylsulfonyl-5,7-di-n-propyl-1,2,4-triazolo[1,5a]pyrimidine] |  |  | % change of cardiac output (anesthetized dogs): +35.6%; % change of heart rate (anesthetized dogs): +0.2%; % change of stroke volume (anesthetized dogs): +34.7%
41 | CCCc1cc(CCC)n2nc(S(=O)(=O)Cc3ccc(C)cc3)nc2n1 [Compound 48, 5,7-di-n-propyl-2-(4-methylbenzyl)sulfonyl-1,2,4-triazolo[1,5a]pyrimidine] |  |  | % change of cardiac output (anesthetized dogs): +16.4%; % change of heart rate (anesthetized dogs): -14.3%; % change of stroke volume (anesthetized dogs): +36.1%
42 | CC(=O)Cc1cc(C)nc2nc(SCc3ccccc3)nn12 [Compound 51, 2-BENZYLTHIO-5-METHYL-7-(2-ACETONYL)-1,2,4-TRIAZOLO [1,5a]PYRIMIDINE] |  |  | % change of cardiac output (anesthetized dogs): +46.2%; % change of heart rate (anesthetized dogs): +3.3%; % change of stroke volume (anesthetized dogs): +42.0%
